Measured values: the RepoRT retention time repository
Where a name gives a salt, the structure may show the parent alone.

Test: HILIC, Merck SeQuant ZIC-HILIC, 25 °C, 0.25 mL/min; A: water + 16 mM ammonium formate; B: acetonitrile + 0.1% formic acid, pH 3; gradient (min/%B) 0/97 2/97 10/70 15/10 17/10 18/97 25/97
Conditions: stereoisomer not certain

Compound	LC retention time
C[N+](C)(C)CCOP(=O)(O)O [PHOSPHORYLCHOLINE]	15.6 min
NCCc1ccc(O)cc1 [TYRAMINE]	11.3 min
CCCC(=O)[O-] [BUTANOATE]	2.15 min
CCCCCCCCCCCCCCCCCCCCCCC(=O)[O-] [TRICOSANOATE]	1.53 min
CC1C(=O)Nc2ccccc21 (stereo not drawn) [3-METHYL-2-OXINDOLE]	1.73 min
NC(N)=S [THIOUREA]	5.07 min
CC(=O)NC(CC(=O)O)C(=O)O (stereo not drawn) [N-ACETYLASPARTATE]	8.76 min
C[N+](C)(C)[O-] [trimethylamine N-oxide]	11.9 min
O=C(O)C(=O)O [OXALATE]	17.5 min
NCCCCNCCCN [SPERMIDINE]	19.5 min
O=C(O)Cc1ccc(O)cc1 [4-Hydroxyphenylacetic acid]	2.34 min
O=C(O)c1cc[n+]([O-])cc1 [Isonicotinic acid N-oxide]	9.7 min
CC(=O)NCCCC(=O)O [4-ACETAMIDOBUTANOATE]	2.87 min
NCC(N)C(=O)O (stereo not drawn) [2-3-DIAMINOPROPIONATE]	16.1 min
NCCC(=O)O [BETA-ALANINE]	14.1 min
NC(N)=NCCC[C@H](N)C(=O)O [L-Arginine]	16 min
CNC(=O)c1cccnc1 [N methyl nicotinamide]	2.15 min
CC(=O)OC(CC(=O)[O-])C[N+](C)(C)C (stereo not drawn) [o-acetyl-l-carnitine hydrochloride]	13 min
CC(=O)NCCCCN [N-ACETYLPUTRESCINE]	12.9 min
O=Cc1cccc(O)c1 [3-HYDROXYBENZALDEHYDE]	1.75 min
CC(=CCC1=C(C)C(=O)c2ccccc2C1=O)CCCC(C)CCCC(C)CCCC(C)C (stereo not drawn) [PHYLLOQUINONE]	1.49 min
NC(CCCC(=O)O)C(=O)O (stereo not drawn) [AMINOADIPATE]	13.8 min
O=C(O)CC(=O)O [MALONATE]	6.35 min
O=C(O)C(COP(=O)(O)O)OP(=O)(O)O [2-3-DIPHOSPHO-D-GLYCERIC ACID]	15.7 min
CSCCC(O)C(=O)O (stereo not drawn) [2-HYDROXY-4-(METHYLTHIO)BUTANOATE]	1.99 min
O=C(O)CO [GLYCOLATE]	4 min
O=C(O)C(O)C(O)C(=O)O (stereo not drawn) [TARTRATE D]	14.2 min
CCCCCCCCCCCCCCCC(=O)OCC(O)COP(=O)(O)OCCN (stereo not drawn) [16-0_LysoPE]	10.2 min

Compound	LC retention time
NCCOP(=O)(O)O [ETHANOLAMINE PHOSPHATE]	14.9 min
CC(O)(CC(=O)O)CC(=O)O [3-HYDROXYMETHYLGLUTARATE]	4.96 min
O=C(O)C(=O)CCc1ccccc1 [2-oxo-4-phenyl-butyric acid]	2.06 min
C=Cc1c(C)c2cc3[nH]c(cc4nc(cc5nc(cc1[nH]2)C(C)=C5CCC(=O)O)C(CCC(=O)O)=C4C)c(C)c3C=C [PROTOPORPHYRIN]	1.81 min
O=C(O)CC(CC(=O)O)C(=O)O [Tricarballylic acid]	9.58 min
NCCS(=O)O [HYPOTAURINE]	13.9 min
CC(=O)NC(CO)C(=O)O (stereo not drawn) [N-ACETYLSERINE]	8.33 min
CCCCC(O)C(=O)O (stereo not drawn) [2-hydroxycaproic acid]	1.87 min
O=c1ccc2cc(O)ccc2[nH]1 [2-6-quinolinediol]	2.16 min
CC(=O)NC(CCC(=O)O)C(=O)O (stereo not drawn) [N-ACETYLGLUTAMATE]	8.36 min
CC(CCC(=O)O)C1CCC2C3CCC4CC(O)CCC4(C)C3CC(=O)C12C (stereo not drawn) [5b-cholanic acid-3a-OL-12-ONE]	1.81 min
O=C(O)C=Cc1cnc[nH]1 [UROCANATE]	8.66 min
O=C(O)CP(=O)(O)O [PHOSPHONOACETATE]	14.3 min
CC(=O)C1(O)CCC2C3CCC4=CC(=O)CCC4(C)C3CCC21C (stereo not drawn) [17a-Hydroxyprogesterone]	1.61 min
COC(=O)C(=O)OC [Dimethyl oxalate]	2.24 min
C=C(C)C1CC=C(C)C(=O)C1 [(R)-(-)-Carvone]	1.55 min
NCC[Se][Se]CCN [SELENOCYSTAMINE]	16.9 min
O=C(O)C(=O)CS [MERCAPTOPYRUVATE]	13.8 min
COC1=C(OC)C(=O)C(CC=C(C)CCC=C(C)C)=C(C)C1=O [coenzyme Q2]	1.52 min
CC(CCC(=O)O)C1CCC2C3CCC4CC(=O)CCC4(C)C3CCC12C (stereo not drawn) [5b-cholanic acid-3-ONE]	1.63 min
CCC(NC(=O)CCC(N)C(=O)O)C(=O)NCC(=O)O (stereo not drawn) [OPHTHALMATE]	14.1 min
C[n+]1cccc(C(N)=O)c1 [1-METHYLNICOTINAMIDE]	12.8 min
NC(=O)NC1NC(=O)NC1=O (stereo not drawn) [ALLANTOIN]	11.2 min
CNCC(=O)O [SARCOSINE]	13.6 min
O=c1cccc[nH]1 [2-HYDROXYPYRIDINE]	2.15 min
CC(=O)C1CCC2C3CC=C4CC(OS(=O)(=O)O)CCC4(C)C3CCC12C (stereo not drawn) [pregnenolone sulfate]	2.05 min
CC(C)C(O)C(=O)O (stereo not drawn)	1.94 min

Results, then the compound that gave them:

LC retention time	Compound
15.3 min	O=C(O)C1OC(OP(=O)(O)OP(=O)(O)OCC2OC(n3ccc(=O)[nH]c3=O)C(O)C2O)C(O)C(O)C1O (stereo not drawn) [URIDINE DIPHOSPHATE GLUCURONIC ACID]
15.4 min	Nc1nc2c(ncn2C2OC(COP(=O)(O)OP(=O)(O)O)C(O)C2O)c(=O)[nH]1 (stereo not drawn) [GUANOSINE DIPHOSPHATE]
14.6 min	Cc1ncc(CO)c(CN)c1O [PYRIDOXAMINE]
11.4 min	Nc1ncnc2c1ncn2C1OC(CO)C2OP(=O)(O)OC21 (stereo not drawn) [ADENOSINE 2'-3'-CYCLIC PHOSPHATE]
8.23 min	Cc1ncc(CO)c(C=O)c1O [PYRIDOXAL]
2.16 min	Nc1cc([O-])cc(C(=O)O)c1 [3-AMINO-5-HYDROXYBENZOATE]
1.88 min	O=C(O)C(=O)Cc1c[nH]c2ccccc12 [INDOLE-3-PYRUVATE]
15.5 min	CC(N)(Cc1cnc[nH]1)C(=O)O (racemic) [Alpha-methyl-DL-histidine dihydrochloride]
14.7 min	Nc1ncnc2c1ncn2C1OC(COP(=O)(O)OP(=O)(O)O)C(O)C1O (stereo not drawn) [ADENOSINE 5'-DIPHOSPHATE]
1.68 min	C#CC1(O)CCC2C3CCc4cc(O)ccc4C3CCC21C (stereo not drawn) [17a-Ethynylestradiol]
13.4 min	Nc1nc2c(ncn2C2OC3COP(=O)(O)OC3C2O)c(=O)[nH]1 (stereo not drawn) [CYCLIC GMP]
13.6 min	Nc1ncnc2c1ncn2C1OC(COP(=O)(O)O)C(O)C1O (stereo not drawn) [ADENOSINE-MONOPHOSPHATE]
1.7 min	CC12CCC3c4ccc(O)cc4CCC3C1CCC2O (stereo not drawn) [ESTRADIOL-17ALPHA]
14.2 min	N[C@@H](CO)C(=O)O [L-Serine]
2.15 min	CC(=O)NCCc1c[nH]c2ccc(O)cc12 [N-ACETYLSEROTONIN]
15 min	O=c1[nH]cnc2c1ncn2C1OC(COP(=O)([O-])OP(=O)([O-])O)C(O)C1O (stereo not drawn) [INOSINE 5'-DIPHOSPHATE]
1.8 min	CC12CCC(=O)C=C1CCC1C2C(=O)CC2(C)C1CCC2(O)C(=O)CO (stereo not drawn) [CORTISONE]
13 min	OCC1OC(O)CC1O (stereo not drawn)
2.21 min	Cn1cnc2[nH]c(=O)[nH]c(=O)c21 [7-Methylxanthine]

LC retention time	Compound
12.9 min	Cn1c[n+](C2OC(CO)C(O)C2O)c2nc(N)[nH]c(=O)c21 (stereo not drawn) [7-Methylguanosine]
13.2 min	Nc1ncnc2c1ncn2C1OC(CO)C(OP(=O)(O)O)C1O (stereo not drawn) [Adenosine 3'-monophosphate free acid]
2.15 min	Nc1c(O)cccc1C(=O)O [3-HYDROXYANTHRANILATE]
2.04 min	COc1cc(CC(=O)O)ccc1O [HOMOVANILLATE]
16.1 min	Cn1cncc1CC(NC(=O)CCN)C(=O)O (stereo not drawn) [ANSERINE]
15.4 min	Nc1ccn(C2OC(COP(=O)(O)OP(=O)(O)O)C(O)C2O)c(=O)n1 (stereo not drawn) [CYTIDINE DIPHOSPHATE]
1.74 min	CC12CCC(=O)C=C1CCC1C2C(O)CC2(C)C(C(=O)CO)CCC12 (stereo not drawn) [CORTICOSTERONE]
11.8 min	Cc1ncc(COP(=O)(O)O)c(C=O)c1O [PYRIDOXAL-PHOSPHATE]
16.4 min	Cc1ncc(C[n+]2csc(CCOP(=O)(O)O)c2C)c(N)n1 [THIAMINE MONOPHOSPHATE]
12.4 min	Nc1nc2c(c(=O)[nH]1)N=C(CNc1ccc(C(=O)NC(CCC(=O)O)C(=O)O)cc1)CN2 (stereo not drawn) [DIHYDROFOLATE]
2.22 min	Cc1ncc(CO)c(C(=O)O)c1O [4-PYRIDOXATE]
14.2 min	NC(=O)c1ncn(C2OC(COP(=O)(O)O)C(O)C2O)c1N (stereo not drawn) [AICAR]
4.31 min	O=C(O)c1ccc(CO)o1 [5-hydroxymethyl-2-furancarboxylic acid]
11.6 min	Cc1cnc(=O)[nH]c1N [5-METHYLCYTOSINE]
8.25 min	O=c1[nH]cc(CO)c(=O)[nH]1 [5-HYDROXYMETHYLURACIL]
14.4 min	O=c1[nH]c(=O)c2ncn(C3OC(COP(=O)(O)O)C(O)C3O)c2[nH]1 (stereo not drawn) [XANTHOSINE-MONOPHOSPHATE]
1.56 min	CC(=O)C1C(=O)C=C(C)OC1=O (stereo not drawn) [Dehydroacetic acid]
1.89 min	CC12CCC(=O)C=C1CCC1C2C(O)CC2(C)C1CCC2(O)C(=O)CO (stereo not drawn) [CORTISOL]
15.5 min	NC1C(O)OC(COS(=O)(=O)O)C(O)C1O (stereo not drawn) [GLUCOSAMINE 6-SULFATE]
